Reference: patent US20250340551A1, “SMALL MOLECULE MODULATORS OF STAT6” (Gilead Sciences, Inc., priority 2024, published 2025)

What was measured:
[1] = system: Eotaxin-3 (CCL26) release in human whole blood stimulated with IL-4; assay: Human whole blood eotaxin-3 assay (IL-4 stimulated, Eotaxin-3 release); assay type: cell-based
How it was run: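 Lithium-heparin blood preincubated 2 h at 37° C with 4-fold compound dilutions (0.5% DMSO, triplicates), then stimulated with 400 pM recombinant human IL-4 for 48 h. Eotaxin-3 in plasma supernatant measured by MSD immunoassay.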

[2] = molecular target: human STAT6 (Homo sapiens (Human), UniProt P42226); assay: Surface plasmon resonance assay (Biacore 8K, binding to immobilized STAT6); details: human STAT6 aa122-658, N-terminal His-tag, CM5 chip, 25° C.; geometric mean; read-out: STAT6 SPR Kd
How it was run: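 Run at 25° C with His-tagged STAT6 aa122-658 (insect-cell expressed) amine-coupled to a CM5 chip, reference-subtracted, in PBS-P+ with 2% DMSO. Multi-cycle kinetics: 60 sec. contact, up to 300 sec. dissociation. Affinity fitted from late report-point binding isotherms, with Rmax both free and fixed to theoretical 1:1.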

Sequence of human STAT6 (P42226 122-658): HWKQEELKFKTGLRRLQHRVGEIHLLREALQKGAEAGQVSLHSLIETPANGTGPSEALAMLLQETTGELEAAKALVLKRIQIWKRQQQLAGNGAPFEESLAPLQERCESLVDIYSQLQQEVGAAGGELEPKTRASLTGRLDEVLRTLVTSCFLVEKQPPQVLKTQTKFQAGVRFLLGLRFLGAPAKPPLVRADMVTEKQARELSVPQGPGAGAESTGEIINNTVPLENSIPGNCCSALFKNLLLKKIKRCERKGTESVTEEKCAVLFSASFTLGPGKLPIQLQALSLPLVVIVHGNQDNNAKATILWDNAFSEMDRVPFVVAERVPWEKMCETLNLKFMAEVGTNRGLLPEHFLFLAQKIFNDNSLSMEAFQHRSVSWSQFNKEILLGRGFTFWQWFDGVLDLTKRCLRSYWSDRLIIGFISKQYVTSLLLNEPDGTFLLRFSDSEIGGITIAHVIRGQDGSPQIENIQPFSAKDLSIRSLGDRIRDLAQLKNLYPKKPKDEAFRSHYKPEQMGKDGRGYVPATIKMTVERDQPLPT

CNc1ccc(-c2ccnc3c2cc(CN2CCC(c4ccc(C(=O)N(C)C)cc4)CC2)n3C)[n+]([O-])c1 [Example 1u2, N,N-Dimethyl-4-[1-[[1-methyl-4-[5-(methylamino)-1-oxido-pyridin-1-ium-2-yl]pyrrolo[2,3-b]pyridin-2-yl]methyl]-4-piperidyl]benzamide]
EC50 ([1]; Homo sapiens, Hec50, 48 h): 328 nM
Kd [2]: 44.9 nM

CNc1ccc(-c2ccnc3c2cc(CN2CC=C(c4ccc(C(=O)N(C)C)cc4C)CC2)n3C)[n+]([O-])c1 [Example 1u3, N,N,3-Trimethyl-4-[1-[[1-methyl-4-[5-(methylamino)-1-oxido-pyridin-1-ium-2-yl]pyrrolo[2,3-b]pyridin-2-yl]methyl]-3,6-dihydro-2H-pyridin-4-yl]benzamide]
EC50 ([1]; Homo sapiens, Hec50, 48 h): 104 nM
Kd [2]: 16 nM

CNc1ccc(-c2ccnc3c2cc(CN2CCC(c4ccc(C(=O)N(C)C)cc4)CC2)n3S(C)(=O)=O)cn1 [Example 1x1, N,N-Dimethyl-4-[1-[[4-[6-(methylamino)-3-pyridyl]-1-methylsulfonyl-pyrrolo[2,3-b]pyridin-2-yl]methyl]-4-piperidyl]benzamide]
EC50 ([1]; Homo sapiens, Hec50, 48 h): 1110 nM
Kd [2]: 29.5 nM

N,N-Dimethyl-4-[1-[[1-methyl-4-[6-(methylamino)-3-pyridyl]pyrrolo[2,3-b]pyridin-2-yl]methyl]-4-piperidyl]benzamide [Example 1k37]
EC50 ([1]; human whole blood, 400 pM recombinant human IL-4, 48 h, EC50 provided for compounds with >80% Emax, geometric mean): 7160 nM
Kd [2]: 16 nM
